Values after ≈ are worked out from the molar mass of the structure shown.
How the values were obtained:
Experiment in all cases: ≥ marks a high value that may be exact or a test limit, other limits are often not marked, values filed in µg/mL are converted to µM
[1] = system: Staphylococcus aureus NCTC 10788
[2] = system: Enterococcus faecalis NCTC 12697
[3] = system: Escherichia coli NCTC 10418
[4] = system: Candida albicans NCYC 1467
[5] = system: Klebsiella pneumoniae ATCC 43816
[6] = system: Staphylococcus aureus NCTC 12493
[7] = system: Pseudomonas aeruginosa ATCC 27853
[8] = system: Staphylococcus aureus USA 100
[9] = system: Pseudomonas fluorescens NCIMB 9046
[10] = system: Staphylococcus aureus RF122
[11] = system: Staphylococcus aureus Newman
[12] = system: Klebsiella pneumoniae NCIMB 13218
[13] = system: Salmonella enterica subsp. enterica serovar Typhimurium LT2
[14] = system: Staphylococcus aureus SA113
[15] = system: Cronobacter sakazakii DSM 4485
[16] = system: Staphylococcus aureus RN4220
[17] = system: Escherichia coli NCIMB 11843
[18] = system: Staphylococcus aureus NCTC 8325-4
[19] = system: Cronobacter muytjensii ATCC 51329
[20] = system: Cronobacter sakazakii DPC 6440
[21] = system: Cronobacter sakazakii ATCC BAA-894
[22] = system: Candida albicans ATCC 90028
[23] = system: Pseudomonas aeruginosa ATCC 9027
[24] = system: Staphylococcus aureus USA 300

Row | Compound | MIC [1] [µM] | MIC [2] [µM] | MIC [3] [µM] | MIC [4] [µM] | MIC [5] [µM] | MIC [6] [µM] | MIC [7] [µM] | MIC [9] [µM] | MIC [10] [µM] | MIC [11] [µM] | MIC [12] [µM] | MIC [13] [µM] | MIC [14] [µM] | MIC [15] [µM] | MIC [16] [µM] | MIC [17] [µM] | MIC [18] [µM] | MIC [19] [µM] | MIC [20] [µM] | MIC [21] [µM] | further results
1 | CSCC[C@H](NC(=O)[C@H](CC(=O)O)NC(=O)[C@@H](NC(=O)[C@@H](NC(=O)[C@H](CCCCN)NC(=O)[C@H](CC(N)=O)NC(=O)[C@H](CC(C)C)NC(=O)[C@@H](NC(=O)[C@H](C)NC(=O)[C@H](CCCCN)NC(=O)CNC(=O)[C@H](C)NC(=O)[C@H](C)NC(=O)[C@H](CCCCN)NC(=O)CNC(=O)[C@@H](NC(=O)[C@H](CC(N)=O)NC(=O)[C@H](CCCCN)NC(=O)[C@H](CC(C)C)NC(=O)[C@H](CC(C)C)NC(=O)[C@H](CC(=O)O)NC(=O)[C@H](CCCCN)NC(=O)[C@H](Cc1c[nH]c2ccccc12)NC(=O)[C@H](CC(C)C)NC(=O)[C@H](C)N)C(C)C)C(C)C)C(C)C)[C@@H](C)O)C(=O)N[C@H](C(=O)N[C@@H](CC(N)=O)C(=O)N[C@@H](CCC(N)=O)C(N)=O)C(C)C [ALWKDLLKNVGKAAGKAVLNKVTDMVNQ] | 4 (≈ 12.1 µg/mL) | ≥ 128 | 4 (≈ 12.1 µg/mL) | 4 (≈ 12.1 µg/mL) | 8 (≈ 24.2 µg/mL) | 8 (≈ 24.2 µg/mL) | 8 (≈ 24.2 µg/mL) |  |  |  |  |  |  |  |  |  |  |  |  |  | 
2 | CC[C@H](C)[C@H](NC(=O)[C@H](C)NC(=O)[C@H](C)NC(=O)[C@@H]1CCCN1C(=O)[C@@H](NC(=O)[C@H](CC(C)C)NC(=O)[C@H](CCCCN)NC(=O)CNC(=O)[C@H](C)NC(=O)[C@@H](NC(=O)[C@H](CCCCN)NC(=O)[C@H](CC(C)C)NC(=O)[C@@H](NC(=O)[C@H](C)NC(=O)CNC(=O)[C@H](CC(C)C)NC(=O)[C@@H](N)Cc1ccccc1)C(C)C)C(C)C)C(C)C)C(=O)N[C@H]1CSSC[C@@H](C(=O)O)NC(=O)[C@H](CCCCN)NC(=O)[C@H](CCCCN)NC(=O)[C@H](CO)NC(=O)[C@H]([C@@H](C)CC)NC(=O)[C@H](CCCCN)NC1=O [FLGAVLKVAGKLVPAAICKISKKC] | 2 (≈ 4.91 µg/mL) | 8 (≈ 19.6 µg/mL) | 4 (≈ 9.82 µg/mL) | 2 (≈ 4.91 µg/mL) | 8 (≈ 19.6 µg/mL) | 4 (≈ 9.82 µg/mL) | 32 (≈ 78.6 µg/mL) |  |  |  |  |  |  |  |  |  |  |  |  |  | 
3 | CC[C@H](C)[C@@H]1NC(=O)[C@H](C)NC(=O)[C@@H](NC(=O)[C@H](CCCCN)NC(=O)[C@H](C)NC(=O)[C@H](C)NC(=O)[C@H](CC(C)C)NC(=O)CNC(=O)[C@H](C)NC(=O)[C@@H](NC(=O)[C@H](CC(C)C)NC(=O)[C@@H]2CCCN2C(=O)[C@H](CC(C)C)NC(=O)[C@@H](N)Cc2ccccc2)[C@@H](C)CC)CSSC[C@@H](C(=O)O)NC(=O)[C@H](CCCCN)NC(=O)[C@H](CCCCN)NC(=O)[C@H]([C@@H](C)O)NC1=O [FLPLIAGLAAKCAITKKC] | ≥ 512 | ≥ 512 | ≥ 512 | ≥ 512 | ≥ 512 | ≥ 512 | > 512 |  |  |  |  |  |  |  |  |  |  |  |  |  | 
4 | CC(C)C[C@H](NC(=O)[C@H](CCC(N)=O)NC(=O)[C@H](CCC(N)=O)NC(=O)[C@H](C)NC(=O)CNC(=O)[C@H](C)NC(=O)[C@H](CCCCN)NC(=O)CNC(=O)[C@@H](NC(=O)[C@H](CCC(N)=O)NC(=O)[C@H](CCCCN)NC(=O)[C@@H]1CCCN1C(=O)[C@H](CC(C)C)NC(=O)[C@H](Cc1ccc(O)cc1)NC(=O)[C@H](CCCCN)NC(=O)[C@H](C)NC(=O)CNC(=O)[C@H](C)NC(=O)[C@H](CCCCN)NC(=O)[C@H](Cc1ccccc1)NC(=O)[C@H](CC(C)C)NC(=O)[C@H](CO)NC(=O)[C@H](CO)NC(=O)[C@H](Cc1ccccc1)NC(=O)CN)C(C)C)C(N)=O [GFSSLFKAGAKYLPKQVGKAGAQQL] | ≥ 512 | ≥ 512 | ≥ 512 | ≥ 512 | ≥ 512 | ≥ 512 | > 512 |  |  |  |  |  |  |  |  |  |  |  |  |  | 
5 | NC(=O)[C@H](CCCN=C(N)N)NC(=O)[C@H](Cc1cnc[nH]1)NC(=O)[C@H](CCCN=C(N)N)NC(=O)[C@@H](N)Cc1cnc[nH]1 [HRHR] |  |  |  |  |  |  |  |  |  |  |  |  |  |  |  |  |  |  |  |  | MIC [8]: ≥ 100 µM
6 | CC[C@H](C)[C@H](N)C(=O)N[C@@H](CCCCN)C(=O)N[C@@H](C)C(=O)N[C@@H](CCC(N)=O)C(=O)NCC(=O)N[C@@H](CC(C)C)C(=O)N1CCC[C@H]1C(=O)N[C@@H](CCC(N)=O)C(=O)N[C@@H](CCC(=O)O)C(=O)O [IKAQGLPQE] |  |  |  |  |  |  |  | ≥ 1250 | ≥ 1250 | ≥ 1250 | ≥ 1250 | ≥ 1250 | ≥ 1250 | ≥ 2500 | ≥ 1250 | ≥ 1250 | ≥ 1250 | ≥ 2500 | ≥ 625 | ≥ 2500 | 
7 | CC[C@H](C)[C@H](N)C(=O)N[C@@H](CCCCN)C(=O)N[C@@H](Cc1cnc[nH]1)C(=O)N[C@@H](CCCN=C(N)N)C(=O)NCC(=O)N[C@@H](CC(C)C)C(=O)N1CCC[C@H]1C(=O)N[C@@H](CCC(N)=O)C(=O)N[C@@H](CCC(=O)O)C(=O)O [IKHRGLPQE] |  |  |  |  |  |  |  | ≥ 2500 | ≥ 625 | ≥ 1250 | ≥ 1250 | ≥ 1250 | ≥ 1250 | ≥ 2500 | ≥ 1250 | ≥ 1250 | ≥ 1250 | ≥ 1250 | ≥ 312 | ≥ 2500 | 
8 | CC[C@H](C)[C@H](N)C(=O)N[C@@H](CCCN=C(N)N)C(=O)N[C@@H](Cc1cnc[nH]1)C(=O)N[C@@H](CCC(N)=O)C(=O)NCC(=O)N[C@@H](CC(C)C)C(=O)N1CCC[C@H]1C(=O)N[C@@H](CCC(N)=O)C(=O)N[C@@H](CCC(=O)O)C(=O)O [IRHQGLPQE] |  |  |  |  |  |  |  | ≥ 1250 | ≥ 625 | ≥ 2500 | ≥ 2500 | ≥ 2500 | ≥ 2500 | ≥ 1250 | ≥ 2500 | ≥ 1250 | ≥ 2500 | ≥ 1250 | ≥ 1250 | ≥ 625 | 
9 | NCCCC[C@H](NC(=O)[C@H](CCCN=C(N)N)NC(=O)[C@@H](N)CCCCN)C(=O)N[C@@H](CCCN=C(N)N)C(N)=O [KRKR] |  |  |  |  |  |  |  |  |  |  |  |  |  |  |  |  |  |  |  |  | MIC [8]: ≥ 100 µM
10 | NCCCC[C@H](NC(=O)[C@H](Cc1c[nH]c2ccccc12)NC(=O)[C@H](CCCCN)NC(=O)[C@H](Cc1c[nH]c2ccccc12)NC(=O)[C@H](Cc1c[nH]c2ccccc12)NC(=O)[C@H](CCCCN)NC(=O)[C@H](Cc1c[nH]c2ccccc12)NC(=O)[C@@H](N)CCCCN)C(N)=O [KWKWWKWK] |  |  |  |  |  |  |  |  |  |  |  |  |  |  |  |  |  |  |  |  | MIC [8]: 12.5 µM (≈ 15.9 µg/mL); MIC [22]: ≥ 100 µM; MIC [23]: 50 µM (≈ 63.7 µg/mL); MIC [24]: 6.25 µM (≈ 7.97 µg/mL)
11 | NC(=O)[C@H](Cc1c[nH]c2ccccc12)NC(=O)[C@H](Cc1c[nH]c2ccccc12)NC(=O)[C@H](Cc1c[nH]c2ccccc12)NC(=O)[C@H](CCCN=C(N)N)NC(=O)[C@H](CCCN=C(N)N)NC(=O)[C@@H](N)CCCN=C(N)N [RRRWWW] |  |  |  |  |  |  |  |  |  |  |  |  |  |  |  |  |  |  |  |  | MIC [8]: 25 µM (≈ 26.1 µg/mL); MIC [22]: ≥ 100 µM; MIC [23]: 50 µM (≈ 52.2 µg/mL); MIC [24]: 25 µM (≈ 26.1 µg/mL)
12 | CC(C)C[C@H](NC(=O)[C@H](CC(C)C)NC(=O)[C@H](CC(N)=O)NC(=O)[C@H](C)NC(=O)[C@H](CC(N)=O)NC(=O)[C@H](CC(C)C)NC(=O)[C@@H](N)C(C)C)C(=O)N[C@@H](CCCN=C(N)N)C(=O)O [VLNANLLR] |  |  |  |  |  |  | 32 (≈ 29.2 µg/mL) | ≥ 1250 | ≥ 1250 | ≥ 1250 | ≥ 2500 | ≥ 2500 | ≥ 1250 | ≥ 1250 | ≥ 1250 | ≥ 2500 | ≥ 1250 | ≥ 2500 | ≥ 1250 | ≥ 2500 | 
13 | CC(C)C[C@H](NC(=O)[C@H](CC(C)C)NC(=O)[C@H](CC(N)=O)NC(=O)[C@H](CCC(=O)O)NC(=O)[C@H](CC(N)=O)NC(=O)[C@H](CC(C)C)NC(=O)[C@@H](N)C(C)C)C(=O)N[C@@H](Cc1cnc[nH]1)C(=O)O [VLNENLLH] |  |  |  |  |  |  | 32 (≈ 30.4 µg/mL) | ≥ 1250 | ≥ 1250 | ≥ 1250 | ≥ 1250 | ≥ 2500 | ≥ 1250 | ≥ 1250 | ≥ 1250 | ≥ 2500 | ≥ 1250 | ≥ 1250 | ≥ 1250 | ≥ 1250 | 

— DBAASP
